Earlier results in US8128952B2, “Ligand-mediated controlled drug delivery” (Clemson University Research Foundation, priority 2005, dated 2012).

Biological target: human growth hormone (hGH) (Homo sapiens, UniProt P01241)
Conditions: interaction between hGH and Zn-EDTA

Sequence of human growth hormone (hGH) (P01241 27-217): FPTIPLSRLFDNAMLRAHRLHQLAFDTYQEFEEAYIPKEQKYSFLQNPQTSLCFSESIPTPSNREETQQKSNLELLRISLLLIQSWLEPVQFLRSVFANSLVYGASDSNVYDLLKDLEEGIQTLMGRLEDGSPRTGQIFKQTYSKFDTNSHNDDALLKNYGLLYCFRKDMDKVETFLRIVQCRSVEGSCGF

Compound: O=C([O-])CN(CCN(CC(=O)O)CC(=O)O)CC(=O)[O-].[Zn+2] [Zn-EDTA, Zn-ethylenediamine tetraacetic acid]
- Kd: 380 µM
